From PubChem BioAssay AID434987 (Southern Research Specialized Biocontainment Screening …, 2010)
Activity calls are given as the source filed them. The rule behind the calls is not given here.

Test system: M. tuberculosis H37Rv growth inhibition with meropenem
Assay: dose response, H37Rv, with and without meropenem (AID 434987);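 note: growth over 7 days at 37 °C before Alamar Blue read on day 9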
[1] = M. tuberculosis H37Rv growth inhibition, measured here: IC50 without meropenem
[2] = M. tuberculosis H37Rv growth inhibition, measured here: IC90 without meropenem
[3] = measured here: IC90 with meropenem

CN(C)S(=O)(=O)c1ccc(C(=O)/C=C/c2cccnc2)cc1
IC50: 5.92 µM (inactive)
IC50 [1]: 9.41 µM
IC90 [2]: 13.9 µM
IC90 [3]: 12.1 µM

CCSc1nnc(NC(=O)C2Cc3ccccc3CN2C(=O)c2ccco2)s1 (stereo not drawn)
IC50: 2.69 µM
IC50 [1]: > 100 µM
IC90 [2]: > 100 µM
IC90 [3]: > 100 µM

COc1ccccc1/C=C/C(=O)NCC(=O)N/N=C/c1cc(Br)ccc1OC
IC50: 24 µM
IC50 [1]: > 100 µM
IC90 [2]: > 100 µM
IC90 [3]: > 100 µM

O=C(COC(=O)C1=COCCO1)Nc1ccc2c(c1)OCO2
IC50: 3.86 µM
IC50 [1]: 50 µM
IC90 [2]: > 100 µM
IC90 [3]: > 100 µM

Cc1ccc(C)c(N2CCN(C3CCCC(C)C3)CC2)c1 (stereo not drawn)
IC50: 37.9 µM (inactive)
IC50 [1]: 48.7 µM
IC90 [2]: > 100 µM
IC90 [3]: 48.2 µM

CC(C)CC(=O)N1CCN(c2ccc([N+](=O)[O-])c(NCc3ccccc3)c2)CC1
IC50: 44.9 µM (inactive)
IC50 [1]: 46.7 µM
IC90 [2]: 51.5 µM
IC90 [3]: 48.6 µM

O=C(N/N=C/c1cccc(Br)c1)c1ccc(Cn2cc(Br)cn2)o1
IC50: 99.8 µM (inactive)
IC50 [1]: > 100 µM
IC90 [2]: > 100 µM
IC90 [3]: > 100 µM

Cn1c(/C=C/c2ccc(Br)cc2)c([N+](=O)[O-])c(=O)n(C)c1=O
IC50: > 100 µM (inactive)
IC50 [1]: > 100 µM
IC90 [2]: > 100 µM
IC90 [3]: > 100 µM

C/C(CC(=O)NCc1ccco1)=N\NC(=O)CC#N
IC50: 4.68 µM
IC50 [1]: 43.3 µM
IC90 [2]: > 100 µM
IC90 [3]: 17.6 µM

O=C(Nc1ccc(S(=O)(=O)N2CCCCC2)cc1)C1CCCN(C(=O)c2ccc(Cl)cc2)C1 (stereo not drawn)
IC50: > 100 µM (inactive)
IC50 [1]: > 100 µM
IC90 [2]: > 100 µM
IC90 [3]: > 100 µM

Cc1cccc(N2CCN(CC3CCCCC3)CC2)c1C
IC50: 48.5 µM (inactive)
IC50 [1]: 90.5 µM
IC90 [2]: > 100 µM
IC90 [3]: 53.2 µM

Cn1c(=O)c2ccccc2n2c(CCl)nnc12
IC50: 1.22 µM
IC50 [1]: 3.19 µM
IC90 [2]: > 100 µM
IC90 [3]: 4.65 µM

CCOc1cc(N2CCOCC2)c(OCC)cc1NC(=O)COc1cccc(CC)c1
IC50: > 100 µM (inactive)
IC50 [1]: > 100 µM
IC90 [2]: > 100 µM
IC90 [3]: > 100 µM

CSc1nc2cc3c(cc2n1C(=O)c1ccc(C)cc1)OCCO3
IC50: 5.15 µM
IC50 [1]: > 100 µM
IC90 [2]: > 100 µM
IC90 [3]: > 100 µM

COc1ccc2oc(C(=O)Nc3nc4ccccc4[nH]3)c(C)c2c1
IC50: 1.7 µM
IC50 [1]: 36.9 µM
IC90 [2]: > 100 µM
IC90 [3]: > 100 µM

CCOC(=O)c1c(C)n(-c2ccccc2)c2ccc(OCCN(C)C)cc12
IC50: 5.45 µM
IC50 [1]: 62 µM
IC90 [2]: > 100 µM
IC90 [3]: 21.7 µM

CCOC(=O)CNC(=O)c1cccnc1Oc1ccc(Cl)cc1
IC50: 11.4 µM
IC50 [1]: 36.7 µM
IC90 [2]: > 100 µM
IC90 [3]: > 100 µM

CCC(=O)c1ccc(OCc2ccc(C(=O)OC)cc2)c(OC)c1
IC50: 27.9 µM
IC50 [1]: > 100 µM
IC90 [2]: > 100 µM
IC90 [3]: > 100 µM

CN(c1ccc(OCC(=O)OCC(=O)c2c(N)n(C)c(=O)n(C)c2=O)cc1)S(=O)(=O)c1ccc2ccccc2c1
IC50: 26.2 µM
IC50 [1]: > 100 µM
IC90 [2]: > 100 µM
IC90 [3]: > 100 µM

O=C(Nc1ccccc1-c1ccccc1)C12CC3CC(CC(C3)C1)C2
IC50: > 100 µM (inactive)
IC50 [1]: > 100 µM
IC90 [2]: > 100 µM
IC90 [3]: > 100 µM

COc1ccc(/C=C/C(=O)N(C(C)C)C(C)C)cc1Br
IC50: 5.89 µM
IC50 [1]: 93 µM
IC90 [2]: > 100 µM
IC90 [3]: 96.4 µM

CCOC(=O)CNC(=O)CSc1ncnc2c1cnn2Cc1ccccc1
IC50: > 100 µM (inactive)
IC50 [1]: > 100 µM
IC90 [2]: > 100 µM
IC90 [3]: > 100 µM

COc1cc(/C=C/c2ccc3cccc([N+](=O)[O-])c3n2)ccc1OCC(=O)O
IC50: 6.21 µM
IC50 [1]: 24.9 µM
IC90 [2]: 62.5 µM
IC90 [3]: 12 µM

CC(=O)c1ccc(N2CCN(c3ncc(C(F)(F)F)cc3Cl)CC2)cc1
IC50: > 100 µM (inactive)
IC50 [1]: > 100 µM
IC90 [2]: > 100 µM
IC90 [3]: > 100 µM

C/C(=N\NC(=S)NCc1ccccc1)c1cccc(Br)c1
IC50: > 100 µM (inactive)
IC50 [1]: > 100 µM
IC90 [2]: > 100 µM
IC90 [3]: > 100 µM

CC(C)(C)c1ccc(OCC(=O)N/N=C/c2cc(Br)ccc2OC(=O)c2ccco2)cc1
IC50: 82.7 µM (inactive)
IC50 [1]: > 100 µM
IC90 [2]: > 100 µM
IC90 [3]: > 100 µM

Cc1cc(Br)cc2c(C(=O)NCC3CCCO3)cc(-c3ccccc3)nc12 (stereo not drawn)
IC50: 95.6 µM (inactive)
IC50 [1]: > 100 µM
IC90 [2]: > 100 µM
IC90 [3]: > 100 µM

Cc1ccc(NC(=O)CSc2n[nH]c(-c3ccco3)n2)cc1
IC50: > 100 µM (inactive)
IC50 [1]: > 100 µM
IC90 [2]: > 100 µM
IC90 [3]: > 100 µM

CCCCNC(=O)c1onc(CSc2ccc(F)c(F)c2)c1C(=O)O
IC50: 27.8 µM (inactive)
IC50 [1]: 54.4 µM
IC90 [2]: > 100 µM
IC90 [3]: 56.8 µM

CCOC(=O)CNC(=O)/C(=C\c1ccc(F)cc1)NC(=O)c1ccccc1
IC50: 19.1 µM
IC50 [1]: 55.5 µM
IC90 [2]: > 100 µM
IC90 [3]: 35.1 µM

Cc1nc2sc3c(c2c2nnc(SCC(=O)NCc4ccco4)n12)CCCC3
IC50: 82.6 µM (inactive)
IC50 [1]: 80.4 µM
IC90 [2]: > 100 µM
IC90 [3]: > 100 µM

CCOC(=O)c1nn(-c2ccc(Cl)cc2)cc1O
IC50: > 100 µM (inactive)
IC50 [1]: > 100 µM
IC90 [2]: > 100 µM
IC90 [3]: > 100 µM

O=c1[nH]c(C2CCN(S(=O)(=O)c3ccc(S(=O)(=O)NC4CC4)cc3)CC2)nc2c1nnn2Cc1ccc(F)cc1
IC50: > 100 µM (inactive)
IC50 [1]: > 100 µM
IC90 [2]: > 100 µM
IC90 [3]: > 100 µM

O=C(N/N=C\c1cn[nH]c1-c1ccc(Cl)cc1)c1cccs1
IC50: > 100 µM (inactive)
IC50 [1]: > 100 µM
IC90 [2]: > 100 µM
IC90 [3]: > 100 µM

COc1ccc(-c2csc(NC(=O)c3c(C)noc3C)n2)cc1
IC50: 25.9 µM
IC50 [1]: > 100 µM
IC90 [2]: > 100 µM
IC90 [3]: > 100 µM

CC(=O)Nc1ccc(SCC(=O)c2cc(C)n(C)c2C)cc1
IC50: 47 µM (inactive)
IC50 [1]: 57.3 µM
IC90 [2]: > 100 µM
IC90 [3]: 53.6 µM

CCC(C(=O)Nc1ccccc1N1CCCC1)c1ccccc1 (stereo not drawn)
IC50: 48.8 µM (inactive)
IC50 [1]: > 100 µM
IC90 [2]: > 100 µM
IC90 [3]: > 100 µM

COc1ccc([N+](=O)[O-])cc1NS(=O)(=O)c1ccc(C(=O)N2CCCC2)cc1
IC50: > 100 µM (inactive)
IC50 [1]: > 100 µM
IC90 [2]: > 100 µM
IC90 [3]: > 100 µM

CCc1cc(C(N)=S)ccn1
IC50: 8.46 µM
IC50 [1]: 59.3 µM
IC90 [2]: > 100 µM
IC90 [3]: 12.8 µM

COC(=O)c1c(C)n(-c2ccc(C)cc2)c2ccc(O)cc12
IC50: > 100 µM (inactive)
IC50 [1]: > 100 µM
IC90 [2]: > 100 µM
IC90 [3]: > 100 µM

CN(C)/N=C/c1ccc(/C=N/NC(N)=S)o1
IC50: 15.2 µM
IC50 [1]: 90.8 µM
IC90 [2]: > 100 µM
IC90 [3]: 43.3 µM

CONC(=O)c1cc(OCC(F)(F)F)ccc1OCC(F)(F)F
IC50: > 100 µM (inactive)
IC50 [1]: > 100 µM
IC90 [2]: > 100 µM
IC90 [3]: > 100 µM
